The record followed here is US11261189B2, “Substituted 2,4 diamino-quinoline as new medicament for fibrosis, autophagy and cathepsins B (CTSB), L (CTSL) and D (CTSD) related diseases” (Genoscience Pharma, priority 2018, dated 2022).

This experiment has as its target T1, cathepsin B (CTSB) (Homo sapiens, UniProt P07858).
T1 construct: endogenous in cells; host or cells: HepG2
The experiment in a line: Cathepsin B (CTSB) catalytic activity in lysates of treated HepG2 cells (Z-RR-AMC substrate). Format: cell-based. The following applies: for CTSB activity versus NT: 6 hours of treatment. How it is done:
Lysosomal functions was investigated in a hepatocellular carcinoma (HCC) cell line HepG2 after 6 hours and 24 hours of treatment with compound 2-3 (the hydrochloride salt form of compound 2-2) using functional assays of some lysosomal enzymes activity: two cysteine proteinases: cathepsin B (CTSB) and cathepsin L (CTSL), and one aspartic proteinase: cathepsin D (CTSD). Two sets of three concentrations of compound 2-3 (1 μM, 2 μM, and 4 μM for 6 hours, and 0.5 μM, 1 μM and 2 μM for 24 hours) were tested at least in triplicate and four independent experiments were performed. Salinomycin (7.5 μM for 6 hours and 24 hours) was used as a positive control.
The HepG2 cell line was maintained in DMEM (Dulbecco's Modified Eagle Media) high glucose (Cat #L0103-500, Dutscher) containing 1% penicillin-streptomycin (Cat #P06-07100, Dutscher) and 10% FBS (Fetal Bovine Serum) (Cat #11543407, Life Technologies). Cells were cultured at 37° C. with 5% CO2.
The day before the experiment, 6-well plates (Cat #353046, Dutscher) with 250,000 cells in 2.7 mL of medium per well were prepared.
Compound 2-3 was dissolved with filtrated H2O mQ to make a 10 mM stock solution and serial working solutions (10× solutions) were prepared with the diluent (=culture medium with 0.4% H2O mQ) at 5 μM, 10 μM, 20 μM and 40 μM: the “dilution 1” is made from the 10 mM stock solution in the culture medium and the following serial dilutions were made in the diluent to maintain a constant percentage of H2O.
Salinomycin [CAS 53003-10-4] was used as positive control and was dissolved with methanol to make a 10 mM stock solution and a 10× solution at 75 μM was prepared with the culture medium.
300 μL of compound 2-3 10× solutions (solutions at 10 μM, 20 μM and 40 μM for 6 hours of treatment and solutions at 5 μM, 10 μM and 20 μM for 24 hours of treatment) or 300 μL of diluent (=non-treated (NT) condition) or 300 μL of Salinomycin 10× solution were dispensed in the appropriate wells (4 wells/condition). After cells treatment, 6-well plates were returned to incubator for 6 hours or 24 hours.
After 6 hours or 24 hours of cells treatment, the medium was removed from each well. The cells were carefully rinsed with PBS (phosphate-buffered saline, Cat #L0615-500, Dutscher) and detached with 500 μL per well of a trypsin solution. After 5 min of trypsin (Cat #L0930-100, Dutscher) incubation at 37° C., 800 μL of medium was added per well and transferred to a 1.5 mL tube. Then, 800 μL of PBS was used to rinse each well and the corresponding solution was pooled in each corresponding 1.5 mL tube. […] Total protein concentration was assessed using the Bradford reagent (Cat #B6916-500ML, Sigma-Aldrich) and cellular lysates were stored at −80° C. until catalytic activity measurement. […]

Each structure is given as a SMILES string. Structures can show the parent of a compound that is named as a salt.

Turning to `CC(C)(C)NC1CCN(c2cc(NCc3ccc(Cl)cc3)nc3ccccc23)CC1` [2-3, 2-(4-chlorobenzylamino)-4-(4-tert-butylaminopiperidin-1-yl)-quinoline Hydrochloride Salt], the “CTSB activity versus NT” value (HepG2, 2 μM) was found to be 75.4% and the “CTSB activity versus NT” value (HepG2, 4 μM) is given as 54.0%. Moreover, the “inhibition of cathepsin B (CTSB) compare to the control” value (HepG2, 2 μM, 4 μM for 6 hours and 2 μM for 24 hours, p<0.05) was “statistically significant”.
